{"source": "PubChem BioAssay AID2060884", "about": "(Molecular Pharmacology Branch, DTP, NCI, 2025)", "system": "NCI-H929 complex spheroids, viability % test/control", "assay": "Anticancer human tumor NCI-H929 cell line growth inhibition [RAS];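 further: compound exposure lasted seven days before viability was read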;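 on viability, T/C: 100% = DMSO vehicle control viability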", "conditions": "for viability, T/C: stronger effect = lower value", "how_it_was_run": "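Multi-cell-type spheroids: tumor cells plus HUVEC endothelial cells and mesenchymal stem cells. RAS-pathway inhibitors were combined with targeted agents, each dosed in half-log steps down from clinical Cmax, or from 10 microM when Cmax was unknown.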", "data": [{"smiles": "CC(=O)OC12COC1CC(O)C1(C)C(=O)C(O)C3=C(C)C(OC(=O)C(O)C(NC(=O)OC(C)(C)C)c4ccccc4)CC(O)(C(OC(=O)c4ccccc4)C21)C3(C)C", "note": "(centres undefined)", "values": [{"measurement": "viability, T/C", "setting": "compound 0.0316 µM", "value": "1.05% [middle of 4 runs]"}, {"measurement": "viability, T/C", "setting": "compound 0.1 µM", "value": "1.29% [middle of 4 runs]"}, {"measurement": "viability, T/C", "setting": "compound 0.316 µM", "value": "1.47% [middle of 4 runs]"}, {"measurement": "viability, T/C", "setting": "compound 1 µM", "value": "1.41% [middle of 4 runs]"}, {"measurement": "viability, T/C", "setting": "compound 3.16 µM", "value": "1.6% [middle of 4 runs]"}, {"measurement": "viability, T/C", "setting": "compound 10 µM", "value": "0.8% [middle of 4 runs]"}, {"measurement": "IC50", "setting": "curve of compound", "value": "< 31.6", "unit": "nM"}]}, {"smiles": "CC(C)n1nc(-c2ccc3oc(N)nc3c2)c2c(N)ncnc21", "note": "+ CCn1c(-c2cccnc2C(C)OC)c2c3cc(ccc31)N1CCOC(CC(NC(=O)C(C(C)C)N(C)C(=O)C3(F)CCN(C(=O)C#CC(C)(C)N(C)C)CC3)C(=O)N3CCCC(N3)C(=O)OCC(C)(C)C2)C1", "values": [{"measurement": "IC50", "setting": "curve of first compound, second compound 0.000949 µM", "value": 33.9, "unit": "nM"}, {"measurement": "IC50", "setting": "curve of first compound, second compound 0.003 µM", "value": 38.8, "unit": "nM"}, {"measurement": "IC50", "setting": "curve of first compound, second compound 0.00949 µM", "value": 39.4, "unit": "nM"}, {"measurement": "IC50", "setting": "curve of first compound, second compound 0.03 µM", "value": 36.1, "unit": "nM"}, {"measurement": "IC50", "setting": "curve of first compound, second compound 0.0949 µM", "value": 29.7, "unit": "nM"}, {"measurement": "IC50", "setting": "curve of first compound, second compound 0.3 µM", "value": 27.1, "unit": "nM"}, {"measurement": "viability, T/C", "setting": "second compound 0.000949 µM, first compound 0.000316 µM", "value": 104, "unit": "%"}, {"measurement": "viability, T/C", "setting": "second compound 0.000949 µM, first compound 0.001 µM", "value": 103, "unit": "%"}, {"measurement": "viability, T/C", "setting": "second compound 0.000949 µM, first compound 0.00316 µM", "value": 107, "unit": "%"}, {"measurement": "viability, T/C", "setting": "second compound 0.000949 µM, first compound 0.01 µM", "value": 101, "unit": "%"}, {"measurement": "viability, T/C", "setting": "second compound 0.000949 µM, first compound 0.0316 µM", "value": 53.1, "unit": "%"}, {"measurement": "viability, T/C", "setting": "second compound 0.000949 µM, first compound 0.1 µM", "value": 2.22, "unit": "%"}, {"measurement": "viability, T/C", "setting": "second compound 0.003 µM, first compound 0.000316 µM", "value": 105, "unit": "%"}, {"measurement": "viability, T/C", "setting": "second compound 0.003 µM, first compound 0.001 µM", "value": 107, "unit": "%"}, {"measurement": "viability, T/C", "setting": "second compound 0.003 µM, first compound 0.00316 µM", "value": 105, "unit": "%"}, {"measurement": "viability, T/C", "setting": "second compound 0.003 µM, first compound 0.01 µM", "value": 98.5, "unit": "%"}, {"measurement": "viability, T/C", "setting": "second compound 0.003 µM, first compound 0.0316 µM", "value": 60.3, "unit": "%"}, {"measurement": "viability, T/C", "setting": "second compound 0.003 µM, first compound 0.1 µM", "value": 2.31, "unit": "%"}, {"measurement": "viability, T/C", "setting": "second compound 0.00949 µM, first compound 0.000316 µM", "value": 101, "unit": "%"}, {"measurement": "viability, T/C", "setting": "second compound 0.00949 µM, first compound 0.001 µM", "value": 105, "unit": "%"}, {"measurement": "viability, T/C", "setting": "second compound 0.00949 µM, first compound 0.00316 µM", "value": 106, "unit": "%"}, {"measurement": "viability, T/C", "setting": "second compound 0.00949 µM, first compound 0.01 µM", "value": 99.8, "unit": "%"}, {"measurement": "viability, T/C", "setting": "second compound 0.00949 µM, first compound 0.0316 µM", "value": 61.4, "unit": "%"}, {"measurement": "viability, T/C", "setting": "second compound 0.00949 µM, first compound 0.1 µM", "value": 1.89, "unit": "%"}, {"measurement": "viability, T/C", "setting": "second compound 0.03 µM, first compound 0.000316 µM", "value": 97.8, "unit": "%"}, {"measurement": "viability, T/C", "setting": "second compound 0.03 µM, first compound 0.001 µM", "value": 104, "unit": "%"}, {"measurement": "viability, T/C", "setting": "second compound 0.03 µM, first compound 0.00316 µM", "value": 106, "unit": "%"}, {"measurement": "viability, T/C", "setting": "second compound 0.03 µM, first compound 0.01 µM", "value": 100, "unit": "%"}, {"measurement": "viability, T/C", "setting": "second compound 0.03 µM, first compound 0.0316 µM", "value": 56.2, "unit": "%"}, {"measurement": "viability, T/C", "setting": "second compound 0.03 µM, first compound 0.1 µM", "value": 1.72, "unit": "%"}, {"measurement": "viability, T/C", "setting": "second compound 0.0949 µM, first compound 0.000316 µM", "value": 98.7, "unit": "%"}, {"measurement": "viability, T/C", "setting": "second compound 0.0949 µM, first compound 0.001 µM", "value": 108, "unit": "%"}, {"measurement": "viability, T/C", "setting": "second compound 0.0949 µM, first compound 0.00316 µM", "value": 108, "unit": "%"}, {"measurement": "viability, T/C", "setting": "second compound 0.0949 µM, first compound 0.01 µM", "value": 100, "unit": "%"}, {"measurement": "viability, T/C", "setting": "second compound 0.0949 µM, first compound 0.0316 µM", "value": 47.2, "unit": "%"}, {"measurement": "viability, T/C", "setting": "second compound 0.0949 µM, first compound 0.1 µM", "value": 1.3, "unit": "%"}, {"measurement": "viability, T/C", "setting": "second compound 0.3 µM, first compound 0.000316 µM", "value": 102, "unit": "%"}, {"measurement": "viability, T/C", "setting": "second compound 0.3 µM, first compound 0.001 µM", "value": 107, "unit": "%"}, {"measurement": "viability, T/C", "setting": "second compound 0.3 µM, first compound 0.00316 µM", "value": 108, "unit": "%"}, {"measurement": "viability, T/C", "setting": "second compound 0.3 µM, first compound 0.01 µM", "value": 99.5, "unit": "%"}, {"measurement": "viability, T/C", "setting": "second compound 0.3 µM, first compound 0.0316 µM", "value": 42.4, "unit": "%"}, {"measurement": "viability, T/C", "setting": "second compound 0.3 µM, first compound 0.1 µM", "value": 1.08, "unit": "%"}]}]}
